# Peptide text beside a SMILES is read from it.
# Assays:
# Gal8 = assay: Immunoprecipitation of endogenous Gal8 complexes in THP-1 cells; assay type: cell-based; details: 100 μM GPN 1 h
# Method: (A) Analysis of the puncta formation of galectins in response to GPN. HeLa cells overexpressing YFP-fused with the indicated galectins were treated with 100 μM GPN or without (Ctrl) in full medium for 1 h and galectin puncta were quantified by HC. […] White masks, algorithm defined cell boundaries (primary objects); green masks, computer-identified galectins puncta (target objects). Data, means±SEM, n≥3 independent experiments (500 primary objects counted per well; ≥5 wells/sample per each experiment); *p<0.05, **p<0.01, † p≥0.05, ANOVA. (B) Immunoprecipitation analysis of the interactions between galectins and mTOR or RagA GTPase. HEK293T cells overexpressing FLAG-tagged galectins were subjected to anti-FLAG immunoprecipitation followed by immunoblotting for endogenous mTOR or RagA. (C) Immunoprecipitation analysis of interactions between Gal8 and mTOR protein complexes in response to GPN treatment. THP-1 cells not treated or treated with 100 μM GPN in full medium for 1 h were subjected to immunoprecipitation with anti-Gal8 antibody, followed by immunoblotting for endogenous RagA, p14, mTOR or Raptor. (D) Analysis of the proximity of Gal8 to mTOR and other proteins in mTOR complexes in response to GPN. Biotinylated proteins from HEK293T cell expressing APEX2-vector or APEX2-Gal8, after GPN and biotin phenol (BP) treatment were affinity-enriched by binding to streptavidin-beads, and samples were analyzed by immunoblotting analysis for endogenous RagA, p14, mTOR or Raptor. Data, means±SEM, (n=3), **p<0.01, ANOVA. (E) Immunoprecipitation analysis of the interactions between Gal8 and RagA GTPase and its mutants. Lysates of HEK293T cells overexpressing FLAG-Gal8 and HA-tagged RagA proteins (RagAWT, RagAT21L or RagAQ66L) were subjected to anti-FLAG immunoprecipitation, followed by immunoblotting for HA-tagged RagA proteins. (F) Immunoprecipitation analysis of the interactions between Gal8 and RagC GTPase and its mutants. […]
# TAK1 = target: T1, TAK1 (Homo sapiens, UniProt O43318); assay: Co-IP of FLAG-tagged galectins with GFP-tagged TAK1 in HEK293T cells; assay type: binding; details: HEK293T overexpressing FLAG-tagged galectins and GFP-TAK1
# T1 sequence (O43318 1-606): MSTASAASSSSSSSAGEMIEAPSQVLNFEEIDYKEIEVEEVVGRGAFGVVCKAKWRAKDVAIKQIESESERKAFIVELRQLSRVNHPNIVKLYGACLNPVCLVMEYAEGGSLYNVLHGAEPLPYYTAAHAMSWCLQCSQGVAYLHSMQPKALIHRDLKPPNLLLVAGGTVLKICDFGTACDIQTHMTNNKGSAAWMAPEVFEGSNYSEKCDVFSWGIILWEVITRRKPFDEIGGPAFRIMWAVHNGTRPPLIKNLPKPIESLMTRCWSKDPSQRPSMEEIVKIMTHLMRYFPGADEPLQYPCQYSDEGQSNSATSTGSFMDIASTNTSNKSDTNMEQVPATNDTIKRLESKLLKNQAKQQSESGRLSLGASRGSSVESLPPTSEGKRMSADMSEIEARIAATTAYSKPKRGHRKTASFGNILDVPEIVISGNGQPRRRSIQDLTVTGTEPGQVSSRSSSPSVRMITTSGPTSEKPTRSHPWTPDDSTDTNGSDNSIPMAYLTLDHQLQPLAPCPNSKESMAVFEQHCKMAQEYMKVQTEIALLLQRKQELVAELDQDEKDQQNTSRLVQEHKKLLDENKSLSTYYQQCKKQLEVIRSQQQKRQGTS
# Method: (A) Analysis of the activation of AMPK in wildtype (WT) and the complementation of Gal9 in Gal9-knockout (Gal9KO) HEK293A cells treated with 100 μM GPN in full medium for 1 h. AMPK activity was monitored by immunoblotting analysis of AMPKα (T172) and acetyl-CoA carboxylase (ACC, S79) phosphorylation (phosphorylated AMPKα (T172) and ACC (S79) relative to total AMPKα and ACC respectively). (B) HEK293T cells transfected with scrambled siRNA (Scr) or Gal9 siRNA (Gal9KD) were treated with 2 mM LLOMe in full medium for 1 h, and the cell lysates were analyzed for phosphorylation of indicated proteins. Data, means±SEM, n=3, *p<0.05, ANOVA. (C) HEK293T cells overexpressing FLAG-Gal9 were treated with 2 mM LLOMe in full medium for 1 h. Cell lysates were analyzed for the indicated proteins. Data, means±SEM, n=3, *p<0.05, ANOVA. (D) Immunoprecipitation analysis of the interactions between galectins and TAK1. HEK293T cells overexpressing FLAG-tagged galectins and GFP-tagged TAK1 were subjected to anti-FLAG immunoprecipitation followed by immunoblotting for GFP-tagged TAK1. (E) Schematic diagram of Gal9 domains and deletion constructs. (F) HEK293T cells overexpressing FLAG-tagged full-length or truncated Gal9 and GFPAMPK were subjected to anti-FLAG immunoprecipitation, followed by immunoblotting for GFP-AMPK. (G) HEK293T cells overexpressing FLAG-tagged full-length or truncated Gal9 and GFP-TAK1 were subjected to anti-FLAG immunoprecipitation, followed by immunoblotting for GFP-TAK1. (H) Analysis of the activation of AMPK in HEK293T cells subjected to knockdowns as indicated treated with 100 μM GPN in full medium for 1 h. AMPK activity was monitored by immunoblotting analysis of AMPKα (T172) and acetyl-CoA carboxylase (ACC, S79) phosphorylation (phosphorylated AMPKα (T172) and ACC (S79) relative to total AMPKα and ACC respectively). Cells transfected with scrambled siRNA were as control (Scr). […]
# AMPKα = assay: Co-IP of FLAG-tagged galectins with endogenous AMPKα in HEK293T cells; assay type: binding; details: HEK293T overexpressing FLAG-tagged galectins
interaction with TAK1 (TAK1),Molecule,association between Gal8 and LAMTOR2/p14 (Gal8),association between Gal8 and RagA (Gal8),levels of Raptor and mTOR in complexes with Gal8 (Gal8),AMPKα in complexes (co-IP) with galectin (AMPKα)
,"NCC(=O)N[C@@H](Cc1ccccc1)C(=O)Nc1ccc2ccccc2c1 [GPN, glycyl-L-phenylalanine 2-naphththylamide] (HELM PEPTIDE1{G.F.[c1ccc2cc(N[*:1])ccc2c1]}$$$$V2.0)",increased association,increased,reduced levels,
not,Gal8: protein of the galectin family encoded by the gene LGALS8; beta-galactoside-binding lectin,,,,not detected
interacted,Gal9: beta-galactoside-binding lectin protein of the galectin family,,,,found in co-IPs
